Experiments:
[1] = target: EGFR Exon 20 INSNPH Ba/F3 (Homo sapiens, UniProt P00533, DUP771-773, cells depend on it); assay: EGFR Exon 20 INSNPH Ba/F3 CellTiter-Glo; format: cell-based; conditions: CellTiter-Glo, 72 h, read-out: EGFR Exon 20 INSNPH Ba/F3 CTG IC50
Method in brief: (§1)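 ATP-based luminescence (CellTiter-Glo) after 72 h compound exposure gives viability; IC50 from dose-response fit. Cells seeded 24 h ahead at 37 °C, 5% CO2. Controls: DMSO vehicle and 10 μM staurosporine; runs kept only if Z′ ≥0.5.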

[2] = target: EGFR wt (Homo sapiens, UniProt P00533); assay: EGFR wt Lance assay; format: biochemical
Chain of EGFR wt (P00533 25-1210): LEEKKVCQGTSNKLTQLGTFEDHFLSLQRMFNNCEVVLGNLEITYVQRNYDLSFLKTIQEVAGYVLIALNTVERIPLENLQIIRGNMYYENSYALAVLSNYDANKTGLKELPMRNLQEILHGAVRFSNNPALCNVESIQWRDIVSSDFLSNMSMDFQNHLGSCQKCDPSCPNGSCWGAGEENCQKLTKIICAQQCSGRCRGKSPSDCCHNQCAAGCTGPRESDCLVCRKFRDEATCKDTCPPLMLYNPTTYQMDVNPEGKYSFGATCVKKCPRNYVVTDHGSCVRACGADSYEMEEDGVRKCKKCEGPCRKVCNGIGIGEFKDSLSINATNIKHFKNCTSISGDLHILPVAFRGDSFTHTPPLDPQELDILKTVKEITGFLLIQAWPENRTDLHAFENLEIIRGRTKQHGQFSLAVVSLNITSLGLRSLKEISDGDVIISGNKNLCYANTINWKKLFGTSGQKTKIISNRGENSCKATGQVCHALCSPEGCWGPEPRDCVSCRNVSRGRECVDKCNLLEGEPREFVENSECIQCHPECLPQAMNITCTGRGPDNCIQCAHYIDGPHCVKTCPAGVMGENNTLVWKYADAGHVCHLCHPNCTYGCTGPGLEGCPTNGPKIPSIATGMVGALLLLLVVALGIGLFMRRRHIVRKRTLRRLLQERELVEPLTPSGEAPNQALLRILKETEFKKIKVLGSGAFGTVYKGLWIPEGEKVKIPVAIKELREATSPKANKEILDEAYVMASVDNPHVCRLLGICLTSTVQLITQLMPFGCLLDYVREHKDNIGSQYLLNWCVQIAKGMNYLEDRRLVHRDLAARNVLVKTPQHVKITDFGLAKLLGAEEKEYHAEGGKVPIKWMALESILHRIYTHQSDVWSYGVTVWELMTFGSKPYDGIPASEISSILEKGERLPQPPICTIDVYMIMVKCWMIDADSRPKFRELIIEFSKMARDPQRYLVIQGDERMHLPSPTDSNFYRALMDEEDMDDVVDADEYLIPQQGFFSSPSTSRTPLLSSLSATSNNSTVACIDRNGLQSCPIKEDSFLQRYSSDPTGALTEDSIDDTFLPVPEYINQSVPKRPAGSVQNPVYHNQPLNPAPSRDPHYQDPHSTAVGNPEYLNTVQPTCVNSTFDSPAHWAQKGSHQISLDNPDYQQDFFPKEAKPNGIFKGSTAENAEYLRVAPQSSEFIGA
Procedure: (§2) Inhibition is indicated as […] [nM] (“−”=not measured). Compounds having an activity designated as “A” provided an IC50≤100 nM; compounds having an activity designated as “B” provided an 100 nM<IC50≤500 nM; compounds having an activity designated as “C” provided an 500 nM<IC50≤1000 nM; compounds having an activity designated as “D” provided an 1000 nM<IC50≤100000 nM; and compounds having an activity designated as “E” provided an IC50>10000 nM.

[3] = tested on: A431; assay: A431 CellTiter-Glo; format: cell-based; conditions: Homo sapiens, A-431; 72 h compound incubation; read-out: A431 CTG IC50
Method in brief: (§3)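 ATP-based luminescent viability read after 72 h compound exposure (DMSO vehicle, range of concentrations), cells plated 24 h beforehand at 37° C, 5% CO2. IC50 by dose-response fitting; 10 μM Staurosporine and DMSO controls, Z′-factor ≥0.5 required.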

[4] = Metabolic stability in mouse liver microsomes without cofactor NADPH; format: in vitro ADME; conditions: 3 μM test compound, mouse liver microsomes, without NADPH, 50 min, 37° C., LC-MS/MS
Method in brief: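 Cofactor-free incubation: no NADPH added to mouse liver microsomes, with compound at 3 μM and 37° C. Remaining parent was quantified by LC-MS/MS at time points up to 50 minutes to track depletion.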

[5] = target: T1, HER2 INS YVMA (Homo sapiens, UniProt P04626, INS775YVMA); assay: Lance Kinase Activity Assay, HER2 INS YVMA (Her2 Exon 20 INSYVMA Lance); format: biochemical; conditions: biochemical Lance assay
T1 construct: purchased DPF
T1 sequence (P04626 with tags, fused parts or gaps INS775YVMA): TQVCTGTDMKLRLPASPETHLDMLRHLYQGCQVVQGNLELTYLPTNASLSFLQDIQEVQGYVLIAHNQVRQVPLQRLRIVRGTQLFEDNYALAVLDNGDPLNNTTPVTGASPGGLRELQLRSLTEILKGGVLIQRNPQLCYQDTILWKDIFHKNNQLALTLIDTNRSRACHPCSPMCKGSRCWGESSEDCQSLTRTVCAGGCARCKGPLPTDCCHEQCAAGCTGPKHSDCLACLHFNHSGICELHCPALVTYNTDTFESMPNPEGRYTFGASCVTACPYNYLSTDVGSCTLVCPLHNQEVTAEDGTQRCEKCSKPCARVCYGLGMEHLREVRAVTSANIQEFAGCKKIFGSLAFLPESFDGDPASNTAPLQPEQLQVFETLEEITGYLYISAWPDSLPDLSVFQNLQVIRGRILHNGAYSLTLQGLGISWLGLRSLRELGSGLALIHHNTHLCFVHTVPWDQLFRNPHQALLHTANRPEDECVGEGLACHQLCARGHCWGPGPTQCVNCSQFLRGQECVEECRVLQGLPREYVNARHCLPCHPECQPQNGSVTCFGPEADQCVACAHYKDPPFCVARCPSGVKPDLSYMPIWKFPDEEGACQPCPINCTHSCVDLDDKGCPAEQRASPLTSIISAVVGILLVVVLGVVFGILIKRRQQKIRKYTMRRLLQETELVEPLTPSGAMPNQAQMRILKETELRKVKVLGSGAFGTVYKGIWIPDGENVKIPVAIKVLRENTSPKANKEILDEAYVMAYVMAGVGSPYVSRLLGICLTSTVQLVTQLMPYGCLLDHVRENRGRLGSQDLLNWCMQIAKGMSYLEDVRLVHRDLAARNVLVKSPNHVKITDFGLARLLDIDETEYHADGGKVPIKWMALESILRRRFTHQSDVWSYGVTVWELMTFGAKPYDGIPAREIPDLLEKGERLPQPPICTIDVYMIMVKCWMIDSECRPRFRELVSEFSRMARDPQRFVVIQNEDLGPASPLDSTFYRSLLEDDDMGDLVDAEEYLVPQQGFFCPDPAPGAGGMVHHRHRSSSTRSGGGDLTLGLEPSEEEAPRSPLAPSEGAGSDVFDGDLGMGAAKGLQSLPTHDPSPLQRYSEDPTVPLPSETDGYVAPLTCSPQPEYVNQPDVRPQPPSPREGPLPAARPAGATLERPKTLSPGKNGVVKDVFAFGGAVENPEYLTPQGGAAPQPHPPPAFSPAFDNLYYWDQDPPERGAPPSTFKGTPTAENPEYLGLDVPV
Method in brief: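 IC50 was fitted to sigmoidal curves of TR-FRET signal (665 and 615 nm emission after 340 nm excitation) from an Eu anti-phospho antibody binding the phosphorylated ULight peptide. The ATP-started reaction ran 1 h at RT and was then quenched with 10 mM EDTA plus antibody for a further 1 h. Compounds were tested as 8-point, 3-fold dilutions.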

[6] = target: EGFR T790ML858R (Homo sapiens, UniProt P00533, L858R/T790M); assay: EGFR T790ML858R Lance assay; format: biochemical
Chain of EGFR T790ML858R (P00533 25-1210 T790M/L858R): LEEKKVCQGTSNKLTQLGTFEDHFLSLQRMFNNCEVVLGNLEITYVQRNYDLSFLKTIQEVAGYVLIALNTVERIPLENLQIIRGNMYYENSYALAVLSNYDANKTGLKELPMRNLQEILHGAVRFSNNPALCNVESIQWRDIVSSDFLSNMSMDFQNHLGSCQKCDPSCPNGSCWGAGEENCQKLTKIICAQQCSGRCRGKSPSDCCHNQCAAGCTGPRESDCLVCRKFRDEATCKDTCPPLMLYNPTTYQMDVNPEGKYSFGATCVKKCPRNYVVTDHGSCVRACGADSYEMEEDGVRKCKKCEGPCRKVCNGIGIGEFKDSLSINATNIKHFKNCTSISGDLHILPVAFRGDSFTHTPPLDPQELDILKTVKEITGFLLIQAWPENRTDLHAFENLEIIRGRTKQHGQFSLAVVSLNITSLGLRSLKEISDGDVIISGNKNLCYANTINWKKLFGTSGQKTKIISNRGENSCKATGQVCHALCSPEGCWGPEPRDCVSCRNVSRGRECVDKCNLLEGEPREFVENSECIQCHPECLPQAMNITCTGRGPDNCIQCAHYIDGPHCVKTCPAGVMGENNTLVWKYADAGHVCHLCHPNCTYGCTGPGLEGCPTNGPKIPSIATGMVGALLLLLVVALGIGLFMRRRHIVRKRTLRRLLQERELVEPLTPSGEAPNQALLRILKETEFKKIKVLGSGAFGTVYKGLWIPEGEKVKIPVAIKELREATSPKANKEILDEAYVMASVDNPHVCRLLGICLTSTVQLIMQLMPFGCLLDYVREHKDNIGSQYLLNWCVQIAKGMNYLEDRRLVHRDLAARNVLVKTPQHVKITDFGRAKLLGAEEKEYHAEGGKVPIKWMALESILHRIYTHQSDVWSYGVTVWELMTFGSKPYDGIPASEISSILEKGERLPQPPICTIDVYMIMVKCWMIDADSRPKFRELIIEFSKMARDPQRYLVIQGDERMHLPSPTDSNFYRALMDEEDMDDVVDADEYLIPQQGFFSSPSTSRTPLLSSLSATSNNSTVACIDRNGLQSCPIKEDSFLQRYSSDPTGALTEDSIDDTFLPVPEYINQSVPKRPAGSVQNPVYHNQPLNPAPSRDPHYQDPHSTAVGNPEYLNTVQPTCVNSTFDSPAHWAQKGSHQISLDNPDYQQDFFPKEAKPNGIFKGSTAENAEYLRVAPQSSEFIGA
Procedure: as §2

[7] = tested on: H1975; assay: H1975 CellTiter-Glo; format: cell-based; conditions: Homo sapiens, NCI-H1975; 72 h compound incubation; read-out: H1975 CTG IC50
Method in brief: as §3

[8] = target: Her2 Exon 20 INSYVMA Ba/F3 (Homo sapiens, UniProt P04626, DUP772-775, cells depend on it); assay: Her2 Exon 20 INSYVMA Ba/F3 CellTiter-Glo; format: cell-based; conditions: CellTiter-Glo, 72 h, read-out: Her2 Exon 20 INSYVMA Ba/F3 CTG IC50
Method in brief: as §1

[9] = tested on: H1781; assay: H1781 CellTiter-Glo; format: cell-based; conditions: NCI-H1781; 72 h compound incubation; read-out: H1781 CTG IC50
Procedure: 2. Measurement of Cellular Activity
The CellTiter-Glo Luminescent Cell Viability Assay (Promega) is a homogeneous method of determining the number of viable cells in culture. It is based on quantification of ATP, indicating the presence of metabolically active cells. Cells are seeded on day 1 at cell numbers that assure assay linearity and optimal signal intensity. After incubation for 24 h in humidified chambers at 37° C. and 5% CO2, compounds in DMSO are added at different concentrations. Cells are further incubated for 72 h at 37° C. and 5% CO2. Cells treated with the compound vehicle DMSO are used as positive controls and cells treated with 10 μM Staurosporine serve as negative controls. At day 5 the CellTiter Glo Reagent is prepared according to the instructions of the kit (Promega Inc.): Reagent is mixed 1:1 with cell culture medium. Thereon, mixture and assay plates are equilibrated at room temperature for 20 min. Equal volumes of the reagent-medium-mixture is added to the volume of culture medium present in each well. The plates are mixed at ˜200 rpm for 2 minutes on an orbital shaker. The microplates are then incubated at room temperature for 10 minutes for stabilization of the luminescent signal. Following incubation the luminescence is recorded on a Victor microplate reader (Perkin Elmer) using a 200 ms integration time. The data is then analyzed with Excel using the XLFIT Plugin (dose response Fit 205) for IC50-determination. As quality control the Z′-factor is calculated from 16 positive and negative control values. Only assay results showing a Z′-factor ≥0.5 are used for further analysis.
as §2

Chain of EGFR Exon 20 INSNPH Ba/F3 (P00533 with tags, fused parts or gaps DUP771-773): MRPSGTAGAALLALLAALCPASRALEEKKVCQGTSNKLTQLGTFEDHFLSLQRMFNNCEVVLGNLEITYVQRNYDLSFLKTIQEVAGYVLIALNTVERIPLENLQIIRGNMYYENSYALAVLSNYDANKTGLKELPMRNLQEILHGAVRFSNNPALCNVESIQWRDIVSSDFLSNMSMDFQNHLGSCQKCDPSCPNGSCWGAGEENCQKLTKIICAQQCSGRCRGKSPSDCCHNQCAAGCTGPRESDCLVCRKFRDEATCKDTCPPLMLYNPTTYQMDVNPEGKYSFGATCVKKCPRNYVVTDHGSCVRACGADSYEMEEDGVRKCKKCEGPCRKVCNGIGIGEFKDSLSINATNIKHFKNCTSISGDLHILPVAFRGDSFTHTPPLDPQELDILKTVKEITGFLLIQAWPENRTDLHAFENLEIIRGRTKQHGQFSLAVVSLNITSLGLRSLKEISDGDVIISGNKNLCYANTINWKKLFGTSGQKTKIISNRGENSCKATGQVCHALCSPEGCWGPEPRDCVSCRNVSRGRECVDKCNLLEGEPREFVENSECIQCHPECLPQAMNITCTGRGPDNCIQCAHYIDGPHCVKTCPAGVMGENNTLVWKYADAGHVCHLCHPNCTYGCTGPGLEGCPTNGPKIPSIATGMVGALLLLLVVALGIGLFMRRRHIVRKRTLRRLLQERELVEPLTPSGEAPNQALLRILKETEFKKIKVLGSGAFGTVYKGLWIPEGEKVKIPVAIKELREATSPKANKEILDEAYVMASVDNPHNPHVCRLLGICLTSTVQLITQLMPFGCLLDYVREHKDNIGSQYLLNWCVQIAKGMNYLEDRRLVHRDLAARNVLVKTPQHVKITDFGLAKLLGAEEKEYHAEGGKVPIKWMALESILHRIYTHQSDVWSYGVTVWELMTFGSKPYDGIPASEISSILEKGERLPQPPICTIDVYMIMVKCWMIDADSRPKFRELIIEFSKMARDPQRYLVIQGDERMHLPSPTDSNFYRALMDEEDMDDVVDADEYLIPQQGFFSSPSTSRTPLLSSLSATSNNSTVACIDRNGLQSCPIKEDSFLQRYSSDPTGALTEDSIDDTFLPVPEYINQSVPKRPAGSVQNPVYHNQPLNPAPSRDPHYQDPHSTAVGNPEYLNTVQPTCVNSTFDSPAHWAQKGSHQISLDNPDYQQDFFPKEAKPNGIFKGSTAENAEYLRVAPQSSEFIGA

Row | GI50 [1] | IC50 [2] | IC50 [3] | Stability in presence of mouse liver microsomes without cofactor NADPH [% remaining after 50 min] [4] | IC50 [5] | IC50 [6] | IC50 [7] | GI50 [8] | IC50 [9] | Compound
1 | 100 to 500 nM | ≤ 100 nM | 500 to 1000 nM | >99 % remaining after 50 min | ≤ 100 nM | ≤ 100 nM | ≤ 100 nM | 100 to 500 nM | 500 to 1000 nM | C=CC(=O)Nc1cc(-c2c(-c3cccc(CN4CCN(C)CC4)c3)[nH]c3nccc(Cl)c23)ccc1C [Example 16, N-(5-(4-chloro-2-(3-((4-methylpiperazin-1-yl)methyl)phenyl)-1H-pyrrolo[2,3-b]pyridin-3-yl)-2-methylphenyl)acrylamide]
2 | 100 to 500 nM | ≤ 100 nM | 100 to 500 nM | 90 % remaining after 50 min | ≤ 100 nM | ≤ 100 nM | ≤ 100 nM | 100 to 500 nM | 100 to 500 nM | C=CC(=O)Nc1cc(-c2c(-c3cccc(N4CCN(C)CC4)c3)[nH]c3nccc(Cl)c23)ccc1C [Example 17, N-(5-(4-chloro-2-(3-(4-methylpiperazin-1-yl)phenyl)-1H-pyrrolo[2,3-b]pyridin-3-yl)-2-methylphenyl)acrylamide]
3 | ≤ 100 nM | ≤ 100 nM | 100 to 500 nM | 90 % remaining after 50 min | ≤ 100 nM | ≤ 100 nM | ≤ 100 nM | 100 to 500 nM | 100 to 500 nM | C=CC(=O)Nc1cc(-c2c(-c3ccc(OCCN(C)C)cc3)[nH]c3nccc(Cl)c23)ccc1C [Example 18, N-(5-(4-chloro-2-(4-(2-(dimethylamino)ethoxy)phenyl)-1H-pyrrolo[2,3-b]pyridin-3-yl)-2-methylphenyl)acrylamide]
4 | 100 to 500 nM | ≤ 100 nM | 100 to 500 nM | >99 % remaining after 50 min | ≤ 100 nM | ≤ 100 nM | ≤ 100 nM | 100 to 500 nM | 100 to 500 nM | C=CC(=O)Nc1cc(-c2c(-c3ccc(OCCCN4CCN(CC)CC4)cc3)[nH]c3nccc(Cl)c23)ccc1C [Example 23, N-(5-(4-chloro-2-(4-(3-(4-ethylpiperazin-1-yl)propoxy)phenyl)-1H-pyrrolo[2,3-b]pyridin-3-yl)-2-methylphenyl)acrylamide]
5 | 100 to 500 nM | ≤ 100 nM | 100 to 500 nM | >99 % remaining after 50 min | ≤ 100 nM | ≤ 100 nM | ≤ 100 nM | 100 to 500 nM | 500 to 1000 nM | C=CC(=O)Nc1cc(-c2c(-c3cccc(OCCCN4CCN(CC)CC4)c3)[nH]c3nccc(Cl)c23)ccc1C [Example 25, N-(5-(4-chloro-2-(3-(3-(4-ethylpiperazin-1-yl)propoxy)phenyl)-1H-pyrrolo[2,3-b]pyridin-3-yl)-2-methylphenyl)acrylamide]
6 | 100 to 500 nM | ≤ 100 nM | 100 to 500 nM | >99 % remaining after 50 min | ≤ 100 nM | ≤ 100 nM | ≤ 100 nM | 100 to 500 nM | 500 to 1000 nM | C=CC(=O)Nc1cc(-c2c(-c3ccnc(N4CCN(C)CC4)c3)[nH]c3nccc(Cl)c23)ccc1C [Example 26, N-(5-(4-chloro-2-(2-(4-methylpiperazin-1-yl)pyridin-4-yl)-1H-pyrrolo[2,3-b]pyridin-3-yl)-2-methylphenyl)acrylamide]
7 | 100 to 500 nM | ≤ 100 nM | 100 to 500 nM | >99 % remaining after 50 min | ≤ 100 nM | ≤ 100 nM | ≤ 100 nM | 100 to 500 nM | 100 to 500 nM | C=CC(=O)Nc1cc(-c2c(-c3cccc(OCCN(C)C)c3)[nH]c3nccc(Cl)c23)ccc1C [Example 28, N-(5-(4-chloro-2-(3-(2-(dimethylamino)ethoxy)phenyl)-1H-pyrrolo[2,3-b]pyridin-3-yl)-2-methylphenyl)acrylamide]
8 | 500 to 1000 nM | ≤ 100 nM | 1000 to 100000 nM | >99 % remaining after 50 min | ≤ 100 nM | ≤ 100 nM | ≤ 100 nM | 500 to 1000 nM | 1000 to 100000 nM | C=CC(=O)N1CCc2ccc(-c3c(-c4ccc(C5CCN(C)CC5)cc4)[nH]c4nccc(Cl)c34)cc21 [Example 55, 1-(6-(4-Chloro-2-(4-(1-methylpiperidin-4-yl)phenyl)-1H-pyrrolo[2,3-b]pyridin-3-yl)indolin-1-yl)prop-2-en-1-one 2,2,2-trifluoroacetate]
9 | 100 to 500 nM | ≤ 100 nM | 500 to 1000 nM | >99 % remaining after 50 min | ≤ 100 nM | ≤ 100 nM | ≤ 100 nM | 100 to 500 nM | 500 to 1000 nM | C=CC(=O)N1CCc2ccc(-c3c(-c4ccc(N5CCN(C)CC5)cc4)[nH]c4nccc(Cl)c34)cc21 [Example 56, 1-(6-(4-chloro-2-(4-(4-methylpiperazin-1-yl)phenyl)-1H-pyrrolo[2,3-b]pyridin-3-yl)indolin-1-yl)prop-2-en-1-one]
10 | 500 to 1000 nM | ≤ 100 nM | 1000 to 100000 nM | >99 % remaining after 50 min | ≤ 100 nM | ≤ 100 nM | 100 to 500 nM | 100 to 500 nM | 1000 to 100000 nM | C=CC(=O)N1CCc2ccc(-c3c(-c4ccc(N5CCN(C)CC5)c(F)c4)[nH]c4nccc(Cl)c34)cc21 [Example 57, 1-(6-(4-chloro-2-(3-fluoro-4-(4-methylpiperazin-1-yl)phenyl)-1H-pyrrolo[2,3-b]pyridin-3-yl)indolin-1-yl)prop-2-en-1-one]
11 | 1000 to 10000 nM | ≤ 100 nM | 1000 to 100000 nM | >99 % remaining after 50 min | ≤ 100 nM | ≤ 100 nM | 100 to 500 nM | 1000 to 10000 nM | 1000 to 100000 nM | C=CC(=O)N1CCc2ccc(-c3c(-c4ccc(N5CCN(C(C)=O)CC5)cc4)[nH]c4nccc(Cl)c34)cc21 [Example 58, 1-(6-(2-(4-(4-acetylpiperazin-1-yl)phenyl)-4-chloro-1H-pyrrolo[2,3-b]pyridin-3-yl)indolin-1-yl)prop-2-en-1-one]

Reference: US20220370440A1 (Lead Discovery Center GmbH, priority 2018, published 2022)
